This note sets out measurements from patent US20250051347A1, “BIFUNCTIONAL CHIMERIC HETEROCYCLIC COMPOUND AND USE THEREOF AS ANDROGEN RECEPTOR DEGRADER” (Hinova Pharmaceuticals, Inc., priority 2021, published 2025).

A value given as a limit tells only on which side of the number the result lay.

This assay addresses T1, androgen receptor (AR) splicing variant AR-v7 (Homo sapiens, UniProt P10275).
T1 construct: The degradation activity of compounds on AR-v7 in 22RV1 cells; host or cells: 22RV1 cells
T1 sequence (P10275 1-644 isoform P10275-3): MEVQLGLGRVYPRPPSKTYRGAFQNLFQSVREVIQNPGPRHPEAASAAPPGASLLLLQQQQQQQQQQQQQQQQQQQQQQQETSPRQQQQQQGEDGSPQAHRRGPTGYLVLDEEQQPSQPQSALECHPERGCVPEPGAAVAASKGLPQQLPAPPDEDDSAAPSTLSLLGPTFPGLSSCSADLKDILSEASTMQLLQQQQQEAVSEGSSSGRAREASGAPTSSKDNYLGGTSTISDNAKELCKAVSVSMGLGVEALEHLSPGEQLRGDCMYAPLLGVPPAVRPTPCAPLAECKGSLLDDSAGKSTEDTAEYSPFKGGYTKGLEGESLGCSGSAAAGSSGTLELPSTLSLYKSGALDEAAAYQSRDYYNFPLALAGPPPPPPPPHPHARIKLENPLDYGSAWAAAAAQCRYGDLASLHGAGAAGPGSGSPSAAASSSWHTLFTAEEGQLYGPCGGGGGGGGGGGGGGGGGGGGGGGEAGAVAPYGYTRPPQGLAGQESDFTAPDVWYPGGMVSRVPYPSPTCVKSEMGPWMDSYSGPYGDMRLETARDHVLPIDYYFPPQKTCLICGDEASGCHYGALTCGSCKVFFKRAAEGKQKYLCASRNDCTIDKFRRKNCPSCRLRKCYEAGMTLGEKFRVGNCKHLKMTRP
Description: Degradation activity on androgen receptor splicing variant AR-v7 in 22RV1 cells (ELISA). In kind it is cell-based. As to conditions: AR-v7 degradation in 22RV1 cells, 48 h. As to the method: The degradation activity of the compound of the present invention on the androgen receptor splicing variant AR-V7 was analyzed using enzyme-linked immunosorbent assay (ELISA).
The plate was cultured in a 5% CO2 cell incubator at 37° C. for 2 days until the cells adhered to the wall. • 2) The drug was prepared into 10 mM stock solution with dimethylsulfoxide (DMSO). […] The plate was gently shaken and mixed. In addition, negative control wells (only containing culture medium) and positive control wells (only containing cells and DMSO) were set. • 3) After the cells were cultured in an incubator for 48 h, the medium was removed and the cells were rinsed once with ice cold PBS. Then, ice-cold 1× cell lysis buffer was added to each well of the cell culture plate. After the plate was incubated on ice for 15 min, the plate was tapped to mix. • 4) The supernatant of the cell lysate was transferred from the cell culture plate to a […] plate for ELISA. • 5) The newly prepared Capture antibody (green) was mixed with the newly prepared HRP-labeled antibody (red), and then the antibody mixture was added to the above 96-well ELISA plate. • 6) The ELISA plate was sealed with plastic film, and then incubated in a 25° C. incubator for 1 h. • 7) The washing buffer was added to each well, and then TMB substrate was added to each well of the ELISA plate. Subsequently, the plate was cultured in an incubator at 37° C. for 5 min. • 8) 100 μl of stop solution was added to each well of the ELISA plate, and the plate was gently tapped for several seconds. The absorbance was read at 450 nm within 30 min. The data were analyzed by the Dose-response equation in the software GraphPad Prism8, to obtain DC50 and Dmax values.
Background: In an ELISA, binding on a coated surface is turned into a signal by an enzyme label.

On to “5-(((1s,3s)-3-(4-(2-(4-((2-(2H-1,2,3-triazol-2-yl)pyrimidin-5-yl)oxy)phenyl)propan-2-yl)phenoxy)cyclobutyl)amino)-2-(2,6-dioxopiperidin-3-yl)isoindolin-1,3-dione [Example 482]”, for which, under “class symbols”, the DC50 (commonly the midpoint of the concentration-degradation curve) lay in the range of 0.011 to 0.1 µM.
The same measure, in the same setting: the value for `CC(C)(c1ccc(OCc2ccnc(N3CC4(COC4)C3)n2)cc1)c1ccc(OC2CCC[C@@H](Nc3ccc4c(c3)C(=O)N(C3CCC(=O)NC3=O)C4=O)C2)cc1` (stereo in doubt) [Example 493, 5-((3-(4-(2-(4-((2-(2-oxa-6-azaspiro[3.3]heptan-6-yl)pyrimidin-4-yl)methoxy)phenyl)propan-2-yl)phenoxy)cyclohexyl)amino)-2-(2,6-dioxopiperidin-3-yl)isoindolin-1,3-dione] was 0.101 to 1 µM; that for `CC(C)(c1ccc(OCCCCCCCCOCCN2CCN(c3ccc4c(c3)C(=O)N(C3CCC(=O)NC3=O)C4=O)CC2)cc1)c1ccc(OCc2ccnc(NS(C)(=O)=O)n2)cc1` (stereo not drawn) [Example 1, N-(4-((4-(2-(4-((8-(2-(4-(2-(2,6-dioxopiperidin-3-yl)-1,3-dioxoisoindolin-5-yl)piperazin-1-yl)ethoxy)octyl)oxy)phenyl)propan-2-yl)phenoxy)methyl)pyrimidin-2-yl)methanesulfonamide] was 0.101 to 1 µM; that for `CC(C)(c1ccc(OCCCCCCCOCCN2CCN(c3ccc4c(c3)C(=O)N(C3CCC(=O)NC3=O)C4=O)CC2)cc1)c1ccc(OCc2ccnc(NS(C)(=O)=O)n2)cc1` (stereo not drawn) [Example 2, N-(4-((4-(2-(4-((7-(2-(4-(2-(2,6-dioxopiperidin-3-yl)-1,3-dioxoisoindolin-5-yl)piperazin-1-yl)ethoxy)heptyl)oxy)phenyl)propan-2-yl)phenoxy)methyl)pyrimidin-2-yl)methanesulfonamide] was 0.101 to 1 µM.
Take `CC(C)(c1ccc(OCCCCOCCCCN2CCC3(CC2)CN(c2ccc4c(c2)C(=O)N(C2CCC(=O)NC2=O)C4=O)C3)cc1)c1ccc(OCc2ccnc(NS(C)(=O)=O)n2)cc1` (stereo not drawn) [Example 3]: for the setting “numeric values”, the DC50 was over 10 µM.
Same read-out and setting: the value for `CC(C)(c1ccc(OCCCOCCCN2CCC3(CC2)CN(c2ccc4c(c2)C(=O)N(C2CCC(=O)NC2=O)C4=O)C3)cc1)c1ccc(OCc2ccnc(NS(C)(=O)=O)n2)cc1` (stereo not drawn) [Example 4] was over 10 µM; that for `CC(C)(c1ccc(OCCCCCCCCCN2CCN(C3CN(c4ccc5c(c4)C(=O)N(C4CCC(=O)NC4=O)C5=O)C3)CC2)cc1)c1ccc(OCc2ccnc(NS(C)(=O)=O)n2)cc1` (stereo not drawn) [Example 5, N-(4-((4-(2-(4-((9-(4-(1-(2-(2,6-dioxopiperidin-3-yl)-1,3-dioxoisoindolin-5-yl)azetidin-3-yl)piperazin-1-yl)nonyl)oxy)phenyl)propan-2-yl)phenoxy)methyl)pyrimidin-2-yl)methanesulfonamide] was over 10 µM.
On the same count and under the same terms, next, `CC(C)(c1ccc(OCCCCCCN2CCC(CN3CCN(c4ccc5c(c4)C(=O)N(C4CCC(=O)NC4=O)C5=O)CC3)CC2)cc1)c1ccc(OCc2ccnc(NS(C)(=O)=O)n2)cc1` (stereo not drawn) [Example 6]: 6.33 µM; `CC(C)(c1ccc(OCCCCCCCOCCCN2CCN(c3ccc4c(c3)C(=O)N(C3CCC(=O)NC3=O)C4=O)CC2)cc1)c1ccc(OCc2ccnc(NS(C)(=O)=O)n2)cc1` (stereo not drawn) [Example 7, N-(4-((4-(2-(4-((7-(3-(4-(2-(2,6-dioxopiperidin-3-yl)-1,3-dioxoisoindolin-5-yl)piperazin-1-yl)propoxy)heptyl)oxy)phenyl)propan-2-yl)phenoxy)methyl)pyrimidin-2-yl)methanesulfonamide]: over 10 µM.
Still for that read-out and setting: next, `CC(C)(c1ccc(OCCCCCCOCCCCN2CCN(c3ccc4c(c3)C(=O)N(C3CCC(=O)NC3=O)C4=O)CC2)cc1)c1ccc(OCc2ccnc(NS(C)(=O)=O)n2)cc1` (stereo not drawn) [Example 8, N-(4-((4-(2-(4-((6-(4-(4-(2-(2,6-dioxopiperidin-3-yl)-1,3-dioxoisoindolin-5-yl)piperazin-1-yl)butoxy)hexyl)oxy)phenyl)propan-2-yl)phenoxy)methyl)pyrimidin-2-yl)methanesulfonamide]: 5.27 µM.
Regarding `CC(C)(c1ccc(OCCCCCOc2ccc3c(c2)C(=O)N(C2CCC(=O)NC2=O)C3=O)cc1)c1ccc(OCc2ccnc(NS(C)(=O)=O)n2)cc1` (stereo not drawn) [Example 9, N-(4-((4-(2-(4-((5-((2-(2,6-dioxopiperidin-3-yl)-1,3-dioxoisoindolin-5-yl)oxy)pentyl)oxy)phenyl)propan-2-yl)phenoxy)methyl)pyrimidin-2-yl)methanesulfonamide], the DC50 (class symbols) is 1 to 5 µM.
The same measure, in the same setting: the value for `CC(C)(c1ccc(OCCCCNc2cccc3c2C(=O)N(C2CCC(=O)NC2=O)C3=O)cc1)c1ccc(OCc2ccnc(NS(C)(=O)=O)n2)cc1` (stereo not drawn) [Example 10, N-(4-((4-(2-(4-(4-((2-(2,6-dioxopiperidin-3-yl)-1,3-dioxoisoindolin-yl)amino)butoxy)phenyl)propan-2-yl)phenoxy)methyl)pyrimidin-2-yl)methanesulfonamide] was 1 to 5 µM; that for `CC(C)(c1ccc(OCCCN2CCN(CC3CCN(CC4CN(c5ccc6c(c5)C(=O)N(C5CCC(=O)NC5=O)C6=O)C4)CC3)CC2)cc1)c1ccc(OCc2ccnc(NS(C)(=O)=O)n2)cc1` (stereo not drawn) [Example 11, N-(4-((4-(2-(4-(3-(4-((1-((1-(2-(2,6-dioxopiperidin-3-yl)-1,3-dioxoisoindolin-5-yl)azetidin-3-yl)methyl)piperidin-4-yl)methyl)piperazin-1-yl)propoxy)phenyl)propan-2-yl)phenoxy)methyl)pyrimidin-2-yl)methanesulfonamide] was 1 to 5 µM.
Turning to `CC(C)(c1ccc(OCc2ccnc(NS(C)(=O)=O)n2)cc1)c1ccc(OC2CCN(CC3CCN(CC4CCN(CC5CN(c6ccc7c(c6)C(=O)N(C6CCC(=O)NC6=O)C7=O)C5)CC4)CC3)CC2)cc1` (stereo not drawn) [Example 12], under “class symbols”, the DC50 was in the range of 1 to 5 µM.
The compound `CC(C)(c1ccc(OCc2ccnc(NS(C)(=O)=O)n2)cc1)c1ccc(OCC2CCN(CCCCOCCCCNc3ccc4c(c3)C(=O)N(C3CCC(=O)NC3=O)C4=O)C2)cc1` (stereo not drawn) [Example 13, N-(4-((4-(2-(4-((1-(4-(4-(4-)((2-(2,6-dioxopiperidin-3-yl)-1,3-dioxoisoindolin-5-yl)amino)butoxy)butyl)pyrrolidin-3-yl)methoxy)phenyl)propan-2-yl)phenoxy)methyl)pyrimidin-2-yl)methanesulfonamide] had a half-maximal degradation concentration (DC50) (numeric values) of 6.97 µM.
The same measure, in the same setting: the value for `CC(C)(c1ccc(OCc2ccnc(NS(C)(=O)=O)n2)cc1)c1ccc(OC2CN(CCCCCOCCCCNc3ccc4c(c3)C(=O)N(C3CCC(=O)NC3=O)C4=O)C2)cc1` (stereo not drawn) [Example 14] was over 10 µM.
Still for that read-out and setting: next, `CC(C)(c1ccc(OCc2ccnc(NS(C)(=O)=O)n2)cc1)c1ccc(OC2CCN(CCCCCOCCCCNc3ccc4c(c3)C(=O)N(C3CCC(=O)NC3=O)C4=O)CC2)cc1` (stereo not drawn) [Example 15]: over 10 µM; `CC(C)(c1ccc(OCc2ccnc(NS(C)(=O)=O)n2)cc1)c1ccc(OCC2CCN(CCCOCCCCNc3ccc4c(c3)C(=O)N(C3CCC(=O)NC3=O)C4=O)CC2)cc1` (stereo not drawn) [Example 16]: over 10 µM.
In turn, `CC(C)(c1ccc(OCCCOCCCNc2cccc3c2C(=O)N(C2CCC(=O)NC2=O)C3=O)cc1)c1ccc(OCc2ccnc(NS(C)(=O)=O)n2)cc1` (stereo not drawn) [Example 17] yielded a 50% degradation concentration (DC50) (class symbols) of 1 to 5 µM.
`CC(C)(c1ccc(OCCCOCCCNc2ccc3c(c2)C(=O)N(C2CCC(=O)NC2=O)C3=O)cc1)c1ccc(OCc2ccnc(NS(C)(=O)=O)n2)cc1` (stereo not drawn) [Example 18] registered a DC50 (numeric values) of over 10 µM.
On the same count and under the same terms, the value for `CC(C)(c1ccc(OCCCOCCCOCCCNc2cccc3c2C(=O)N(C2CCC(=O)NC2=O)C3=O)cc1)c1ccc(OCc2ccnc(NS(C)(=O)=O)n2)cc1` (stereo not drawn) [Example 19, N-(4-((4-(2-(4-(3-(3-(3-((2-(2,6-dioxopiperidin-3-yl)-1,3-dioxoisoindolin-4-yl)amino)propoxy)propoxy)propoxy)phenyl)propan-2-yl)phenoxy)methyl)pyrimidin-2-yl)methanesulfonamide] was 6.86 µM.
